We go through 27 molecules from ChEMBL document CHEMBL5523684, “Development of a tetrahydroindazolone-based HDAC6 inhibitor with in-vivo anti-arthritic activity” (Bioorg Med Chem, 2024).

Assay [1] addresses T1, Protein deacetylase HDAC6 (Homo sapiens, UniProt Q9UBN7).
T1 sequence (Q9UBN7 whole entry): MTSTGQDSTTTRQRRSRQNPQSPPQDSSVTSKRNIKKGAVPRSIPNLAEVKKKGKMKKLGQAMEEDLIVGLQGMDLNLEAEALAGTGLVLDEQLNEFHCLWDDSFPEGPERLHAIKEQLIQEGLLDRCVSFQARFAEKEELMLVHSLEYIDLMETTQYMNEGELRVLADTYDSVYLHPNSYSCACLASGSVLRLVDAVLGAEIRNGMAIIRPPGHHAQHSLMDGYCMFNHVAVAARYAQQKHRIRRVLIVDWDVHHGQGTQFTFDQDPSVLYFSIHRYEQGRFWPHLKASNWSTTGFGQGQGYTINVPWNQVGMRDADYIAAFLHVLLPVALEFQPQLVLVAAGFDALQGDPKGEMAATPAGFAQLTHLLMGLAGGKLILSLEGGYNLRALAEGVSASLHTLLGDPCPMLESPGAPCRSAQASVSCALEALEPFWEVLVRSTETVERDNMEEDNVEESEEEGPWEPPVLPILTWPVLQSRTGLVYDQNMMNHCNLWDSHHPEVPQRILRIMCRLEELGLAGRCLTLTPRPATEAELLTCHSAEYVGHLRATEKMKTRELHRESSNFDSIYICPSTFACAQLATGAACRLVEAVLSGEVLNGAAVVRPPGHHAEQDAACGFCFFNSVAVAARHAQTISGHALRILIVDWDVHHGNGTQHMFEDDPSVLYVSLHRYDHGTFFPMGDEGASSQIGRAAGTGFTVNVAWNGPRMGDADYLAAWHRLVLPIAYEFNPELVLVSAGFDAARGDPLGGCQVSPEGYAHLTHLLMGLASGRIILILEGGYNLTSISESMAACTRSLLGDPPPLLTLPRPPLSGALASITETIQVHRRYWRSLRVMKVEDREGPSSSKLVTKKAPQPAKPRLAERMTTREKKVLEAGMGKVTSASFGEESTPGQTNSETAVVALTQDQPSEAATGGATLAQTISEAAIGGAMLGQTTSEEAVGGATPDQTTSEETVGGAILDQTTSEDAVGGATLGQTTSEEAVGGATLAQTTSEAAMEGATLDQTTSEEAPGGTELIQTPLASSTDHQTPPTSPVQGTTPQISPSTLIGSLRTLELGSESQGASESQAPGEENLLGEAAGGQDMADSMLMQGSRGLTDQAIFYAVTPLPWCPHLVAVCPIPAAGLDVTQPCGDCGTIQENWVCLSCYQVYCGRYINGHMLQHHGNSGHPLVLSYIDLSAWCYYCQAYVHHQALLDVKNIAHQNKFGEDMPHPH
Nature of the assay: Inhibition of N-terminal GST-tagged human recombinant HDAC6 expressed in Spodoptera frugiperda incubated for 60 mins by fluorescence based analysis.

The species named for assay [2] is Homo sapiens. Nature of the assay: Selectivity index, ratio of IC50 for inhibition of his-tagged human recombinant HDAC1 using fluor de lys-SIRT1 as substrate to IC50 for inhibition of N-terminal GST-tagged human recombinant HDAC6 expressed in Spodoptera frugiperda.
The target of assay [3] is T2, Histone deacetylase 1 (Homo sapiens, UniProt Q13547). Kind of assay: Inhibition of his-tagged human recombinant HDAC1 using fluor de lys-SIRT1 as substrate incubated for 60 mins by fluorescence based analysis.
T2 sequence (Q13547 whole entry): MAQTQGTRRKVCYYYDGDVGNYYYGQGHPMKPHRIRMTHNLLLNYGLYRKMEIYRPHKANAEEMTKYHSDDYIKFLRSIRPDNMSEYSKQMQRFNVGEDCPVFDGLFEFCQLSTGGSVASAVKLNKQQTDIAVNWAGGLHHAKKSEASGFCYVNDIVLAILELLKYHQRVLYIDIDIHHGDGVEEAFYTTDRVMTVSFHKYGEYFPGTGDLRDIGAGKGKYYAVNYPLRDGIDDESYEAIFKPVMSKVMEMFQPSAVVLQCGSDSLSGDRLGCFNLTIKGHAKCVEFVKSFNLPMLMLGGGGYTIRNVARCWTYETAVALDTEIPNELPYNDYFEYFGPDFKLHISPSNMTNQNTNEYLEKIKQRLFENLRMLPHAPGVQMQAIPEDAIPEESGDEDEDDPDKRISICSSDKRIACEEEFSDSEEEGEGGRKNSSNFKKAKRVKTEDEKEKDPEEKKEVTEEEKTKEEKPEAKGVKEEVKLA
Assay [4] concerns the target T2, Histone deacetylase 1. Kind of assay: Inhibition of HDAC1 (unknown origin).
Assay [5] concerns the target T1, Protein deacetylase HDAC6. Kind of assay: Inhibition of human recombinant HDAC6 using fluorescent peptide p53 (379 to 382 residues) RHKK(Ac) as substrate by fluorescence based analysis.
Assay [6] addresses Histone deacetylase 2 (Homo sapiens, UniProt Q92769). Nature of the assay: Inhibition of human recombinant HDAC2 using fluorescent peptide p53 (379 to 382 residues) RHKK(Ac) as substrate by fluorescence based analysis.
The target in assay [7] is T3, Polyamine deacetylase HDAC10 (Homo sapiens, UniProt Q969S8).
T3 sequence (Q969S8 whole entry): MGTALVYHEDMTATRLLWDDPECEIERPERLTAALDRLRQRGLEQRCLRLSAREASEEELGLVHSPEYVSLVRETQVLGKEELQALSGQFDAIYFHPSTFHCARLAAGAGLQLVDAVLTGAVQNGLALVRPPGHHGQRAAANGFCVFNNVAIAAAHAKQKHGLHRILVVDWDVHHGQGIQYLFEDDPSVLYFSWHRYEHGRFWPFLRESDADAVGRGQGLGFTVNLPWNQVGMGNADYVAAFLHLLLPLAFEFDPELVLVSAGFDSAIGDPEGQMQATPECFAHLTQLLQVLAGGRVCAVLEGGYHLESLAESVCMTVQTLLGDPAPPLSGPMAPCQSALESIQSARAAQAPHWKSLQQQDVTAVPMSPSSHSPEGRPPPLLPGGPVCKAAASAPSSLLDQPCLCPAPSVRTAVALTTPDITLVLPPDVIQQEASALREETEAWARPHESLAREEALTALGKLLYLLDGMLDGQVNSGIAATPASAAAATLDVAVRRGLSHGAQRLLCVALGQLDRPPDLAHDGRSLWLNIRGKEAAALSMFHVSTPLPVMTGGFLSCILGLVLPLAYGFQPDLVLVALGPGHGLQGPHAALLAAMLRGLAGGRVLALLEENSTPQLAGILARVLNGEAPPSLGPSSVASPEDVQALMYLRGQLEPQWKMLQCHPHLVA
Kind of assay: Inhibition of human recombinant HDAC10 using fluorescent peptide p53 (379 to 382 residues) RHKK(Ac) as substrate by fluorescence based analysis.

Assay [8] has as its target Histone deacetylase 3 (Homo sapiens, UniProt O15379).

Sequence of Histone deacetylase 3 (O15379 whole entry): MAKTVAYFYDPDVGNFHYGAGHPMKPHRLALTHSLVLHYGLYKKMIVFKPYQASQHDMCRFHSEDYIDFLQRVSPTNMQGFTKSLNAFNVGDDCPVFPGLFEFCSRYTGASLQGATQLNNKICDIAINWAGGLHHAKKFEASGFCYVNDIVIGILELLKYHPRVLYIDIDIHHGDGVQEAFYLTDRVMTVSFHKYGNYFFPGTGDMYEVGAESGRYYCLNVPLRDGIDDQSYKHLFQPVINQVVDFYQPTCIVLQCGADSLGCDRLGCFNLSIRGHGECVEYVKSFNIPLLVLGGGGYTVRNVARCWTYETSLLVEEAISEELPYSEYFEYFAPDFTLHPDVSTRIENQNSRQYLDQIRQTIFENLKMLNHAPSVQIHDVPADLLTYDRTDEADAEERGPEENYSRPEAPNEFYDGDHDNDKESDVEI
Sequence of Histone deacetylase 2 (Q92769 whole entry, the tested form may be a part): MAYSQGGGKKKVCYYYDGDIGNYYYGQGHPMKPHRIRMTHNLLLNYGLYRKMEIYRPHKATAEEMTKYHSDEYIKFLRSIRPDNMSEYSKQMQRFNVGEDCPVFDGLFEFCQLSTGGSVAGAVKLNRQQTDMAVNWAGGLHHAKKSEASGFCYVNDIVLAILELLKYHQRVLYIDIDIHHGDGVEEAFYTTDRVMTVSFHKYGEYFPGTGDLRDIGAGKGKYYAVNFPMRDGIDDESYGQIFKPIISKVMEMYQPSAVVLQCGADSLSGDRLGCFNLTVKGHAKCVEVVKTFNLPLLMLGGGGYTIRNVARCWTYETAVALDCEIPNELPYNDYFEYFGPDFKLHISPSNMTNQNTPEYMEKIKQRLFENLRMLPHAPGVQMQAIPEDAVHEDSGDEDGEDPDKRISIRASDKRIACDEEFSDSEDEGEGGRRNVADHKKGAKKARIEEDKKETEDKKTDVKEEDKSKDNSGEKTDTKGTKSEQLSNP

As for `CCN1CCN(CC2CCc3c(c4ccccc4n3Cc3ccc(C(=O)NO)cc3)C2=O)CC1` (stereo not drawn), the IC50 in assay [1] was 14 nM. The Ratio IC50 in assay [2] turned out to be 329.

On to `CC1(C)Cc2c(c3cc(F)ccc3n2Cc2ccc(C(=O)NO)cc2)C(=O)C1CN1CCOCC1` (stereo not drawn), for which the Ratio IC50 in assay [2] turned out to be 41.4. On the same count and under the same terms, the same measure for `CC(C)(C)OC(=O)N1CCN(CC2CCc3c(c4ccccc4n3Cc3ccc(C(=O)NO)cc3)C2=O)CC1` (stereo not drawn): 327. Take `O=C(NO)c1ccc(Cn2c3c(c4cc(F)ccc42)C(=O)C(CN2CCOCC2)CC3)cc1` (stereo not drawn): the IC50 in assay [1] is 5 nM. In assay [2], the Ratio IC50 came to 828. For `CC1(C)CC(=O)c2c(n(Cc3ccc(C(=O)NO)cc3)c3ccc(Br)cc23)C1`, in assay [2], the Ratio IC50 came to 42.4. In the case of `CC1(C)CC(=O)c2c(n(Cc3ccc(C(=O)NO)cc3)c3ccccc23)C1`, the IC50 in assay [1] stood at 12 nM; in assay [3], 4140 nM. In assay [2], the Ratio IC50 was determined as 345. `O=C(NO)c1ccc(Cn2c3c(c4ccccc42)C(=O)C(CN2CCN(c4ccc(F)cc4)CC2)CC3)cc1` (stereo not drawn): the IC50 in assay [1] was determined as 8 nM. Further, the Ratio IC50 in assay [2] is 661. In the same order, the values of `CCN1CCN(CC2CCc3c(c4cc(F)ccc4n3Cc3ccc(C(=O)NO)cc3)C2=O)CC1` (stereo not drawn) are 11 nM and 202. Turning to `CC(C)(C)OC(=O)N1CCN(CC2CCc3c(c4cc(F)ccc4n3Cc3ccc(C(=O)NO)cc3)C2=O)CC1` (stereo not drawn), in assay [2], the Ratio IC50 was found to be 311. The same measure, in the same setting: the same measure for `O=C(NO)c1ccc(Cn2c3c(c4cc(F)ccc42)C(=O)CCC3)cc1`: 328; for `CC1(C)Cc2c(c3ccccc3n2Cc2ccc(C(=O)NO)cc2)C(=O)C1CN1CCOCC1` (stereo not drawn): 153.

Turning to `CN1CCN(CC2CCc3c(c4ccccc4n3Cc3ccc(C(=O)NO)cc3)C2=O)CC1` (stereo not drawn), the half-maximal inhibitory concentration (IC50) in assay [1] amounted to 12 nM. Further, in assay [2], the Ratio IC50 was determined as 345.

For `CC1CN(CC2CCc3c(c4ccccc4n3Cc3ccc(C(=O)NO)cc3)C2=O)CC(C)O1` (stereo not drawn), the IC50 in assay [1] came out at 11 nM; in assay [3], 870 nM. Also, in assay [2], the Ratio IC50 came to 79.1. `CCCCN1CCN(CC2CCc3c(c4cc(F)ccc4n3Cc3ccc(C(=O)NO)cc3)C2=O)CC1` (stereo not drawn): the IC50 in assay [1] amounted to 6 nM. Moreover, in assay [2], the Ratio IC50 amounted to 373. The corresponding values for `Cc1nccn1CC1C(=O)c2c(n(Cc3ccc(C(=O)NO)cc3)c3ccccc23)CC1(C)C` (stereo not drawn) are 35 nM and 166. In the same order, the values of `Cc1c2c(n(Cc3ccc(C(=O)NO)cc3)c1C)CCCC2=O` are 4 nM and 705.

Turning to `Cc1nccn1CC1CCc2c(c3cc(F)ccc3n2Cc2ccc(C(=O)NO)cc2)C1=O` (stereo not drawn), in assay [1], the IC50 turned out to be 9 nM. Moreover, the Ratio IC50 in assay [2] amounted to 570.

Consider `O=C(NO)c1ccc(Cn2c3c(c4ccccc42)C(=O)C(CN2CCCCC2)CC3)cc1` (stereo not drawn), for which, in assay [1], the IC50 was 12 nM. The Ratio IC50 in assay [2] came to 284. Consider `Cc1cn(Cc2ccc(C(=O)NO)cc2)c2c1C(=O)CCC2`, for which the IC50 amounted to 2 nM in assay [1] and 1130 nM in assay [3]. Besides, the Ratio IC50 in assay [2] was determined as 543. Take `O=C(NO)c1ccc(Cn2c3c(c4ccccc42)CCCC3)cc1`: the IC50 in assay [4] came out at 10900 nM.

Consider `Cc1ccc(N2CCN(CC3CCc4c(c5ccccc5n4Cc4ccc(C(=O)NO)cc4)C3=O)CC2)cc1C` (stereo not drawn), for which the IC50 in assay [1] was 40 nM. The Ratio IC50 in assay [2] is 203. For `CN1CCN(CC2CCc3c(c4cc(F)ccc4n3Cc3ccc(C(=O)NO)cc3)C2=O)CC1` (stereo not drawn), the IC50 was 5 nM in assay [1]; 4 nM in assay [5]; greater than 20000 nM in assay [6]; greater than 20000 nM in assay [7]; greater than 20000 nM in assay [8]. Further, in assay [2], the Ratio IC50 was determined as 530.

For `Cc1cn(Cc2ccc(C(=O)NO)cc2)c2c1C(=O)CC(C)(C)C2`, the IC50 in assay [1] was 8 nM. Moreover, in assay [2], the Ratio IC50 amounted to 380. In the case of `Cc1c2c(n(Cc3ccc(C(=O)NO)cc3)c1C)CC(C)(C)CC2=O`, the IC50 in assay [1] was determined as 11 nM. Besides, the Ratio IC50 in assay [2] came out at 464. The corresponding values for `CN1CCN(CC2C(=O)c3c(n(Cc4ccc(C(=O)NO)cc4)c4ccc(F)cc34)CC2(C)C)CC1` (stereo not drawn) are 2 nM and 182. The corresponding values for `Cc1nn(Cc2ccc(C(=O)NO)cc2)c2c1C(=O)CC(C)(C)C2` are 12 nM and 135.

Turning to `CC(C)N1CCN(CC2CCc3c(c4cc(F)ccc4n3Cc3ccc(C(=O)NO)cc3)C2=O)CC1` (stereo not drawn), the Ratio IC50 in assay [2] was 50.2.
